Source: patent US8101550B2, “Anthranilic acid diamide derivative with hetero-aromatic and hetero-cyclic substituents” (Bayer Cropscience AG, priority 2006, dated 2012)

test: log P determination by HPLC on reverse-phase column (EEC Directive 79/831 Annex V.A8); format: physicochemical; settings: not given
How it was run: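 Log P was derived from retention times by linear interpolation between successive unbranched alkan-2-one standards (C3–C16). The standards and samples ran on a C18 reverse-phase column at 43 °C with a 10→95% acetonitrile gradient in 0.1% formic acid (pH 2.7). The method follows EEC Directive 79/831 Annex V.A8.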

Row | SMILES | logP
1 | NC(=O)c1cc(Cl)cc(Cl)c1NC(=O)c1cc(Cn2ccc(C(F)(F)F)n2)nn1-c1ncccc1Cl [I-1-311] | 2.21
2 | CSCC(C)NC(=O)c1cc(C#N)cc(C)c1NC(=O)c1cc(Cn2cc(Cl)c(C(F)(F)C(F)(F)F)n2)nn1-c1ncccc1Cl (stereo not shown) [I-1-209] | 4.05
3 | Cc1cc(I)cc(C(=O)NC2CC2)c1NC(=O)c1cc(Cn2nc(C(F)(F)F)nc2C(F)(F)F)nn1-c1ncccc1Cl [I-1-252] | 3.81
4 | Cc1cc(Cl)cc(C(=O)NC(C)C)c1NC(=O)c1cc(Cn2cnc(C(F)(F)C(F)(F)F)n2)nn1-c1ncccc1Cl [I-1-323] | 3.01
5 | CNC(=O)c1cc(Cl)cc(Cl)c1NC(=O)c1cc(Cn2cc(Cl)c(C(F)(F)C(F)(F)F)n2)nn1-c1ncccc1Cl [I-1-308] | 3.18
6 | CC(C)NC(=O)c1cc(Cl)cc(Cl)c1NC(=O)c1cc(Cc2cncnc2)nn1-c1ncccc1Cl [I-1-318] | 1.62
7 | Cc1cc(I)cc(C(=O)NC2CC2)c1NC(=O)c1cc(Cn2nc(C(F)(F)F)cc2C(F)(F)F)nn1-c1ncccc1Cl [I-1-231] | 4.01
8 | Cc1cc(I)cc(C(=O)NCC2CC2)c1NC(=O)c1cc(Cn2cc(Cl)c(C(F)(F)C(F)(F)F)n2)nn1-c1ncccc1Cl [I-1-254] | 4.47
9 | Cc1cc(C#N)cc(C(=O)NCC#N)c1NC(=O)c1cc(Cn2ccc(C(F)(F)F)n2)nn1-c1ncccc1Cl [I-1-185] | 2.62
10 | Cc1cc(I)cc(C(=O)NC(C)C)c1NC(=O)c1cc(Cn2nc(C(F)(F)F)nc2C(F)(F)F)nn1-c1ncccc1Cl [I-1-238] | 4.06
11 | O=C(NC1CC1)c1cc(Cl)cc(Cl)c1NC(=O)c1cc(Cn2cnc(C(F)(F)C(F)(F)F)n2)nn1-c1ncccc1Cl [I-1-335] | 2.69
12 | Cc1cc(I)cc(C(N)=O)c1NC(=O)c1cc(Cn2nc(C(F)(F)F)cc2C(F)(F)F)nn1-c1ncccc1Cl [I-1-234] | 3.56
13 | Cc1cc(F)cc(C(=O)NC2CC2CO)c1NC(=O)c1cc(Cn2cc(Cl)c(C(F)(F)C(F)(F)F)n2)nn1-c1ncccc1Cl (stereo not shown) [I-1-203] | 3.14
14 | CCNC(=O)c1cc(I)cc(C)c1NC(=O)c1cc(Cn2nc(C(F)(F)F)nc2C(F)(F)F)nn1-c1ncccc1Cl [I-1-244] | 3.83
15 | Cc1cc(I)cc(C(=O)NCC#N)c1NC(=O)c1cc(Cn2ccc(C(F)(F)F)n2)nn1-c1ncccc1Cl [I-1-251] | 3.04
16 | CCN(CC)CC(C)NC(=O)c1cc(Cl)cc(C)c1NC(=O)c1cc(Cn2cc(Cl)c(C(F)(F)C(F)(F)F)n2)nn1-c1ncccc1Cl (stereo not shown) [I-1-215] | 2.62

Row | SMILES | logP
17 | CNC(=O)c1cc(Cl)cc(Cl)c1NC(=O)c1cc(Cc2cncnc2)nn1-c1ncccc1Cl [I-1-321] | 1.41
18 | CNC(=O)c1cc(C#N)cc(C)c1NC(=O)c1cc(Cn2cc(Cl)c(C(F)(F)C(F)(F)F)n2)nn1-c1ncccc1Cl [I-1-171] | 3.44
19 | Cc1cc(F)cc(C(=O)NC(C)C)c1NC(=O)c1cc(Cn2nc(C(F)(F)F)nc2C(F)(F)F)nn1-c1ncccc1Cl [I-1-218] | 3.55
20 | Cc1cc(Cl)cc(C(N)=O)c1NC(=O)c1cc(Cn2cnc(C(F)(F)C(F)(F)F)n2)nn1-c1ncccc1Cl [I-1-343] | 2.02
21 | CSC[C@H](C)NC(=O)c1cc(Cl)cc(C)c1NC(=O)c1cc(Cn2nnc(-c3ccc(Cl)nc3)n2)nn1-c1ncccc1Cl [I-1-158] | 3.67
22 | Cc1cc(I)cc(C(=O)NCC2CC2)c1NC(=O)c1cc(Cn2nc(C(F)(F)F)nc2C(F)(F)F)nn1-c1ncccc1Cl [I-1-253] | 4.13
23 | Cc1cc(Cl)cc(C(=O)NC2CC2)c1NC(=O)c1cc(Cn2cnc(C(F)(F)C(F)(F)F)n2)nn1-c1ncccc1Cl [I-1-331] | 2.78
24 | Cc1cc(I)cc(C(=O)NC2CCCCC2)c1NC(=O)c1cc(Cn2nc(C(F)(F)F)nc2C(F)(F)F)nn1-c1ncccc1Cl [I-1-281] | 4.54
25 | CNC(=O)c1cc(C#N)cc(C)c1NC(=O)c1cc(Cn2nc(C(F)(F)F)nc2C(F)(F)F)nn1-c1ncccc1Cl [I-1-176] | 3.11
26 | Cc1cc(Cl)cc(C(=O)NC(C)C)c1NC(=O)c1cc(Cn2cnc(C(F)(F)C(F)(F)F)n2)nn1-c1ncccc1Cl [I-1-341] | 2.63
27 | CNC(=O)c1cc(F)cc(C)c1NC(=O)c1cc(Cn2ccc(C(F)(F)F)n2)nn1-c1ncccc1Cl [I-1-222] | 2.58
28 | Cc1cc(C#N)cc(C(=O)NC2CC2)c1NC(=O)c1cc(Cn2nc(C(F)(F)F)nc2C(F)(F)F)nn1-c1ncccc1Cl [I-1-178] | 3.31
29 | CNC(=O)c1cc(C#N)cc(C)c1NC(=O)c1cc(Cn2ccc(C(F)(F)F)n2)nn1-c1ncccc1Cl [I-1-181] | 2.57
30 | Cc1cc(C#N)cc(C(=O)NC(C)CS(C)(=O)=O)c1NC(=O)c1cc(Cn2cc(Cl)c(C(F)(F)C(F)(F)F)n2)nn1-c1ncccc1Cl (stereo not shown) [I-1-210] | 3.34
31 | Cc1cc(Cl)cc(C(=O)NCc2ccco2)c1NC(=O)c1cc(Cn2cc(Cl)c(C(F)(F)C(F)(F)F)n2)nn1-c1ncccc1Cl [I-1-201] | 4.21

same assay, conditions: HPLC on reverse-phase column

Row | SMILES | logP
32 | Cc1cc(Br)cc(C(=O)NC(C)(C)CS(C)(=O)=O)c1NC(=O)c1cc(Cn2cc(Br)c(C(F)(F)F)n2)nn1-c1ncccc1Cl [I-1-121] | 3.57
33 | CNC(=O)c1cc(Cl)cc(C)c1NC(=O)c1cc(Cn2cc(Br)c(C(F)(F)F)n2)nn1-c1ncccc1Cl [I-1-66] | 3.38
34 | Cc1cc(Br)cc(C(=O)NCC#N)c1NC(=O)c1cc(Cn2ccc(C(F)(F)F)n2)nn1-c1ncccc1Cl [I-1-85] | 2.98
35 | Cc1cc(Cl)cc(C(N)=O)c1NC(=O)c1cc(Cn2nnc(-c3ccc(C(F)(F)F)cc3)n2)nn1-c1ncccc1Cl [I-1-106] | 3.46
36 | CNC(=O)c1cc(Cl)cc(C)c1NC(=O)c1cc(Cn2nnn(CC(F)(F)F)c2=O)nn1-c1ncccc1Cl [I-1-122] | 2.51
37 | Cc1cc(Cl)cc(C(=O)NC(C)C)c1NC(=O)c1cc(Cn2cc(C(F)(F)F)cn2)nn1-c1ncccc1Cl [I-1-43] | 3.20
38 | CNC(=O)c1cc(Cl)cc(C)c1NC(=O)c1cc(Cn2nnn(-c3cc(Cl)cc(Cl)c3)c2=O)nn1-c1ncccc1Cl [I-1-96] | 3.90
39 | CSC[C@H](C)NC(=O)c1cccc(C)c1NC(=O)c1cc(Cn2nc(C(F)(F)F)nc2C(F)(F)F)nn1-c1ncccc1Cl [I-1-84] | 3.62
40 | Cc1cc(Cl)cc(C(=O)NC(C)(C)C[S+](C)[O-])c1NC(=O)c1cc(Cn2cc(Br)c(C(F)(F)F)n2)nn1-c1ncccc1Cl (stereo not shown) [I-1-136] | 3.23
41 | Cc1cc(Cl)cc(C(=O)NC(C)C)c1NC(=O)c1cc(Cn2nc(C(F)(F)F)n(C)c2=O)nn1-c1ncccc1Cl [I-1-117] | 2.85
42 | Cc1cc(Cl)cc(C(=O)NC(C)CS(C)(=N)=O)c1NC(=O)c1cc(Cn2nc(C(F)(F)F)nc2C(F)(F)F)nn1-c1ncccc1Cl (stereo not shown) [I-1-120] | 2.75
43 | CNC(=O)c1cc(Cl)cc(C)c1NC(=O)c1cc(Cn2nnn(-c3ccc(C(F)(F)F)cc3Cl)c2=O)nn1-c1ncccc1Cl [I-1-109] | 3.51
44 | Cc1cc(Br)cc(C(=O)N[C@@H](C)C[S+](C)[O-])c1NC(=O)c1cc(Cn2nc(C(F)(F)F)nc2C(F)(F)F)nn1-c1ncccc1Cl (stereo partly shown) [I-1-140] | 3.05

same assay, conditions: HPLC, reverse-phase column (C 18), 43° C., acidic range pH 2.7

Row | logP | SMILES
45 | 5.12 | Cc1cc(Cl)cc(C(=O)NC(C)(C)C)c1NC(=O)c1cc(Cn2nc(C(F)(F)F)cc2C(F)(F)F)nn1-c1ncc(C(F)(F)F)cc1Cl [I-2-16]
46 | 4.52 | Cc1cc(Cl)cc(C(=O)NC2CC2)c1NC(=O)c1cc(Cn2nc(C(F)(F)F)cc2C(F)(F)F)nn1-c1ncc(C(F)(F)F)cc1Cl [I-2-12]
